Data on 49 compounds can be found in the supplement of paper PMC9103864.

Experiment [1] deals with BMSC (primary human bone marrow mesenchymal stromal cells). Nature of the experiment: absolute EC50 for viability; higher = less sensitive.
Experiment [2] shares this test system. Nature of the experiment: drug sensitivity score (DSS); higher = more sensitive.

For the compound `Cc1sc2c(c1C)C(c1ccc(Cl)cc1)=N[C@@H](CC(=O)NCCCCNC(=O)COc1cccc3c1C(=O)N(C1CCC(=O)NC1=O)C3=O)c1nnc(C)n1-2` (stereo partly drawn) [dBET1], in experiment [1], the “absolute EC50 for viability” value is 2050 nM. In addition, the drug sensitivity score in experiment [2] is 8.2.

As for `CC(C)(C)NC(=O)[C@H]1CC[C@H]2[C@@H]3CC[C@H]4NC(=O)C=C[C@]4(C)[C@H]3CC[C@]12C` [Finasteride], the “absolute EC50 for viability” value in experiment [1] is > 10000 nM. Further, the drug sensitivity score in experiment [2] was determined as 0.

Turning to `COc1ccc(-c2ccc3ncc4c(c3c2)n(-c2ccc(N3CCNCC3)c(C(F)(F)F)c2)c(=O)n4C)cn1` [NVP-BGT226], in experiment [1], the “absolute EC50 for viability” value came to 26.3 nM. This compound also returned a drug sensitivity score in experiment [2] of 17.5.

With `O=S(=O)(c1cccc2c(O)nccc12)N1CCCNCC1` [Hydroxyfasudil], in experiment [1], the “absolute EC50 for viability” value was > 19000 nM. This compound came in with a drug sensitivity score in experiment [2] of 1.

With `Cc1ncc(-c2ccnc(Nc3ccc(S(C)(=O)=O)cc3)n2)n1C(C)C` [AZD-5438], the “absolute EC50 for viability” value in experiment [1] was > 10000 nM. Besides, in experiment [2], the drug sensitivity score was determined as 1.5.

Regarding `N#Cc1ccc2[nH]c(O)c(-c3ccc(CN4CCOCC4)cn3)c2c1` [AZD-1080], in experiment [1], the “absolute EC50 for viability” value is > 10000 nM. In experiment [2], this compound gave a drug sensitivity score of 0.

With `Nc1nc(N)c2nc(-c3cccc(O)c3)c(-c3cccc(O)c3)nc2n1` [TG100-115], the “absolute EC50 for viability” value in experiment [1] is > 10000 nM. The same compound had a drug sensitivity score in experiment [2] of 2.5.

As to `Cc1cc(Nc2cc(N3CCN(C)CC3)nc(/C=C/c3ccccc3)n2)n[nH]1` [ENMD-2076], the “absolute EC50 for viability” value in experiment [1] worked out at 897 nM. The same compound displayed a drug sensitivity score in experiment [2] of 11.5.

Regarding `NC1(c2ccc(-c3nc4ccn5c(=O)[nH]nc5c4cc3-c3ccccc3)cc2)CCC1` [MK-2206], the “absolute EC50 for viability” value in experiment [1] was > 1000 nM. Moreover, the drug sensitivity score in experiment [2] amounted to 5.8.

`CC(C)(C)c1cc(NC(=O)Nc2ccc(Oc3ccnc4[nH]c(=O)cnc34)cc2F)n(-c2ccccc2)n1`: in experiment [1], the “absolute EC50 for viability” value is > 25000 nM. This compound displayed a drug sensitivity score in experiment [2] of 0.

As for `COC(=O)C[C@](O)(CCCC(C)(C)O)C(=O)O[C@@H]1C(OC)=C[C@]23CCCN2CCc2cc4c(cc2[C@H]13)OCO4` [Omacetaxine], the “absolute EC50 for viability” value in experiment [1] was found to be 219 nM. In experiment [2], this compound showed a drug sensitivity score of 18.6.

For `O=C(O)C(=O)O.[NH-][C@@H]1CCCC[C@H]1[NH-].[Pt+2]` [Oxaliplatin], the “absolute EC50 for viability” value in experiment [1] was > 100000 nM. The drug sensitivity score in experiment [2] amounted to 0.7.

Regarding `CC(C)N(C[C@H]1O[C@@H](n2cnc3c(N)ncnc32)[C@H](O)[C@@H]1O)[C@H]1C[C@@H](CCc2nc3cc(C(C)(C)C)ccc3[nH]2)C1` [Pinometostat], the “absolute EC50 for viability” value in experiment [1] was > 1000 nM. In addition, in experiment [2], the drug sensitivity score came to 0.

On to `CNc1ncc2cc(-c3cc(NC(=O)NCCC(C)(C)C)c(F)cc3C)c(C)nc2n1`, for which, in experiment [1], the “absolute EC50 for viability” value is > 10000 nM. Moreover, in experiment [2], the drug sensitivity score was determined as 6.2.

For `Cn1cnc2c(F)c(Nc3ccc(Br)cc3Cl)c(C(=O)NOCCO)cc21` [Selumetinib], the “absolute EC50 for viability” value in experiment [1] is > 10000 nM. Besides, the drug sensitivity score in experiment [2] came out at 4.9.

Turning to `Clc1ccc(C(c2ccccc2Cl)C(Cl)Cl)cc1` (stereo not drawn) [Mitotane], the “absolute EC50 for viability” value in experiment [1] is > 10000 nM. This compound showed a drug sensitivity score in experiment [2] of 0.

As to `CC(C)C[C@H](NC(=O)[C@H](CCc1ccccc1)NC(=O)CN1CCOCC1)C(=O)N[C@@H](Cc1ccccc1)C(=O)N[C@@H](CC(C)C)C(=O)[C@@]1(C)CO1` [Carfilzomib], in experiment [1], the “absolute EC50 for viability” value turned out to be 18.7 nM. The same compound had a drug sensitivity score in experiment [2] of 19.7.

With `CO[C@@]12[C@H](COC(N)=O)C3=C(C(=O)C(C)=C(N)C3=O)N1C[C@@H]1N[C@@H]12` [Mitomycin], in experiment [1], the “absolute EC50 for viability” value is > 10000 nM. In experiment [2], this compound returned a drug sensitivity score of 0.

With `CC(C)NC(=O)COc1cccc(-c2nc(Nc3ccc4[nH]ncc4c3)c3ccccc3n2)c1` [KD025], the “absolute EC50 for viability” value in experiment [1] was > 5000 nM. The compound further came in with a drug sensitivity score in experiment [2] of 0.

As for `Cc1cnc(NC(=O)Nc2cc(Br)c(C)cc2OC[C@@H]2CNCCO2)cn1` [Rabusertib], the “absolute EC50 for viability” value in experiment [1] was > 1000 nM. This compound gave a drug sensitivity score in experiment [2] of 0.

`COc1ccc(-c2nc(N3CCOCC3)c3sc(CN(C)c4ncc(C(=O)NO)cn4)cc3n2)cn1` [CUDC-907]: the “absolute EC50 for viability” value in experiment [1] stood at 64.9 nM. In experiment [2], this compound registered a drug sensitivity score of 24.6.

Take `O=C(Nc1cc(Oc2cc(F)c(NC(=O)C3(C(=O)Nc4ccc(F)cc4)CC3)cc2F)ccn1)C1CC1` [Altiratinib]: the “absolute EC50 for viability” value in experiment [1] is > 10000 nM. This compound returned a drug sensitivity score in experiment [2] of 2.9.

With `COc1cc2nccc(Oc3ccc(NC(=O)Nc4cc(C)on4)c(Cl)c3)c2cc1OC` [Tivozanib], in experiment [1], the “absolute EC50 for viability” value was > 10000 nM. The compound also gave a drug sensitivity score in experiment [2] of 7.6.

Consider `Cn1c(Nc2ccc(C(F)(F)F)cc2)nc2cc(Oc3ccnc(-c4ncc(C(F)(F)F)[nH]4)c3)ccc21` [RAF-265], for which the “absolute EC50 for viability” value in experiment [1] is > 1000 nM. Further, the drug sensitivity score in experiment [2] worked out at 2.5.

As to `S=c1[nH]cnc2nc[nH]c12` [Mercaptopurine], in experiment [1], the “absolute EC50 for viability” value was > 10000 nM. In experiment [2], this compound registered a drug sensitivity score of 11.1.

With `C=CCN(/C=C1/C(=O)O[C@H](COC)[C@@]2(C)C1=C(O)C(=O)C1=C2[C@H](OC(C)=O)C[C@]2(C)C(=O)CC[C@@H]12)CC=C` [Sonolisib], the “absolute EC50 for viability” value in experiment [1] is > 10000 nM. The drug sensitivity score in experiment [2] is 0.

`O=C(O)CC1CC(c2ccccc2)=NO1` (stereo not drawn) [VGX-1027]: in experiment [1], the “absolute EC50 for viability” value was > 10000 nM. In addition, the drug sensitivity score in experiment [2] was -0.1.

On to `CCN(CC)Cc1ccc2cc(COC(=O)Nc3ccc(C(=O)NO)cc3)ccc2c1` [Givinostat], for which the “absolute EC50 for viability” value in experiment [1] was > 1000 nM. The drug sensitivity score in experiment [2] came to 3.6.

For the compound `Nc1ncnc2c1nc(N)n2[C@@H]1O[C@H](CO)[C@@H](O)[C@H]1O` [8-amino-adenosine], the “absolute EC50 for viability” value in experiment [1] came to 803 nM. This compound displayed a drug sensitivity score in experiment [2] of 21.5.

Take `CCC(C)n1ncn(-c2ccc(N3CCN(c4ccc(OCC5COC(Cn6cncn6)(c6ccc(Cl)cc6Cl)O5)cc4)CC3)cc2)c1=O` (stereo not drawn) [Itraconazole]: the “absolute EC50 for viability” value in experiment [1] was > 5000 nM. The compound further had a drug sensitivity score in experiment [2] of 1.3.

For `CC(C)c1cc(C(=O)N2Cc3ccc(CN4CCN(C)CC4)cc3C2)c(O)cc1O` [Onalespib], the “absolute EC50 for viability” value in experiment [1] is 90.4 nM. The compound further had a drug sensitivity score in experiment [2] of 12.5.

Take `COc1cc2ncnc(Nc3ccc(F)c(Cl)c3)c2cc1OCCCN1CCOCC1` [Gefitinib]: the “absolute EC50 for viability” value in experiment [1] was > 10000 nM. In addition, in experiment [2], the drug sensitivity score is 3.4.

`CCCCOc1nc(N)c2c(n1)N(Cc1cccc(CN3CCCC3)c1)CC(=O)N2` [Vesatolimod]: the “absolute EC50 for viability” value in experiment [1] is > 10000 nM. In experiment [2], this compound displayed a drug sensitivity score of 0.

With `CO[C@@H]1[C@H](N(C)C(=O)c2ccccc2)C[C@H]2O[C@]1(C)n1c3ccccc3c3c4c(c5c6ccccc6n2c5c31)C(=O)NC4` [Midostaurin], the “absolute EC50 for viability” value in experiment [1] is 1650 nM. The same compound returned a drug sensitivity score in experiment [2] of 7.5.

With `N[C@@H]1CCCN(c2c(/C=C3\SC(=O)NC3=O)cccc2-c2ccccc2)C1` [AZD1208], the “absolute EC50 for viability” value in experiment [1] is > 10000 nM. In experiment [2], this compound showed a drug sensitivity score of 0.5.

Take `CN1CCN(c2ccc3nc(-c4c(N)c5c(F)cccc5[nH]c4=O)[nH]c3c2)CC1` [Dovitinib]: in experiment [1], the “absolute EC50 for viability” value was > 10000 nM. This compound also yielded a drug sensitivity score in experiment [2] of 0.9.

Turning to `CS(=O)(=O)CCNCc1ccc(-c2ccc3ncnc(Nc4ccc(OCc5cccc(F)c5)c(Cl)c4)c3c2)o1` [Lapatinib], the “absolute EC50 for viability” value in experiment [1] is > 1000 nM. This compound displayed a drug sensitivity score in experiment [2] of 0.1.

As to `CCC/C=C/C=C/C(=O)O[C@H]1/C(=C/C(=O)OC)C[C@H]2C[C@H]([C@@H](C)O)OC(=O)C[C@H](O)C[C@@H]3C[C@H](OC(C)=O)C(C)(C)[C@](O)(C[C@@H]4C/C(=C/C(=O)OC)C[C@H](/C=C/C(C)(C)[C@]1(O)O2)O4)O3` [Bryostatin 1], the “absolute EC50 for viability” value in experiment [1] was > 100 nM. This compound also gave a drug sensitivity score in experiment [2] of 0.

For the compound `CO[C@H]1C[C@@H]2CC[C@@H](C)[C@@](O)(O2)C(=O)C(=O)N2CCCC[C@H]2C(=O)O[C@H]([C@H](C)C[C@@H]2CC[C@@H](OC(=O)C(C)(CO)CO)[C@H](OC)C2)CC(=O)[C@H](C)/C=C(\C)[C@@H](O)[C@@H](OC)C(=O)[C@H](C)C[C@H](C)/C=C/C=C/C=C/1C` [Temsirolimus], the “absolute EC50 for viability” value in experiment [1] was > 100 nM. The same compound gave a drug sensitivity score in experiment [2] of 7.4.

On to `CC(C)C[C@H](NC(=O)CNC(=O)c1cc(Cl)ccc1Cl)B(O)O` [Ixazomib], for which the “absolute EC50 for viability” value in experiment [1] is > 1000 nM. In experiment [2], this compound displayed a drug sensitivity score of 0.4.

For `Cc1cc(Nc2cc(N3CCN(C)CC3)nc(Sc3ccc(NC(=O)C4CC4)cc3)n2)n[nH]1` [Tozasertib], in experiment [1], the “absolute EC50 for viability” value came to 4450 nM. This compound also yielded a drug sensitivity score in experiment [2] of 4.9.

As for `C[C@@H](Oc1cc(-c2cnn(C3CCNCC3)c2)cnc1N)c1c(Cl)ccc(F)c1Cl` [Crizotinib], the “absolute EC50 for viability” value in experiment [1] was > 1000 nM. The compound further registered a drug sensitivity score in experiment [2] of 0.2.

Take `COCCNCc1ccc(-c2cc3nccc(Oc4ccc(NC(=S)NC(=O)Cc5ccc(F)cc5)cc4F)c3s2)nc1` [Glesatinib]: the “absolute EC50 for viability” value in experiment [1] was > 2500 nM. Further, in experiment [2], the drug sensitivity score stood at 5.1.

Consider `CCCCCCCCc1ccc(CCC(N)(CO)CO)cc1` [Fingolimod], for which the “absolute EC50 for viability” value in experiment [1] was determined as 3020 nM. Further, in experiment [2], the drug sensitivity score was determined as 5.8.

For `Nc1nc(Nc2ccc3c(c2)CC[C@@H](N2CCCC2)CC3)nn1-c1cc2c(nn1)-c1ccccc1CCC2` [BGB324], in experiment [1], the “absolute EC50 for viability” value turned out to be 2490 nM. Moreover, in experiment [2], the drug sensitivity score was found to be 6.7.

In the case of `COCCNCc1ccc(-c2cc3nccc(Oc4ccc(NC(=O)C5(C(=O)Nc6ccc(F)cc6)CC5)cc4F)c3s2)nc1` [Sitravatinib], in experiment [1], the “absolute EC50 for viability” value is > 2500 nM. The same compound returned a drug sensitivity score in experiment [2] of 7.7.

Regarding `O=C(NC[C@H](O)CN1CCc2ccccc2C1)c1cc(NC2COC2)ncn1`, the “absolute EC50 for viability” value in experiment [1] is > 10000 nM. In addition, the drug sensitivity score in experiment [2] was 0.

For the compound `CCS(=O)(=O)Nc1ccc(Oc2ccc(F)cc2F)c(-c2cn(C)c(=O)c3[nH]ccc23)c1` [Mivebresib], in experiment [1], the “absolute EC50 for viability” value was found to be 2710 nM. Also, the drug sensitivity score in experiment [2] was 13.

Regarding `Cc1ccc(Nc2nccc(N(C)c3ccc4c(C)n(C)nc4c3)n2)cc1S(N)(=O)=O` [Pazopanib], the “absolute EC50 for viability” value in experiment [1] is > 10000 nM. For the same compound, the drug sensitivity score in experiment [2] was 2.1.
